Data: paper PMC6915745, “TRIB3 supports breast cancer stemness by suppressing FOXO1 degradation and enhancing SOX2 transcription” (Nature Communications, 2019)

Assays:
FOXO1 = FOXO1 protein stability (cycloheximide chase), MCF7 cells; assay type: cell-based, human; conditions: CHX, authors' reply to reviewers, control about 3 hr
Description: Fig. 5 TRIB3 stabilizes the FOXO1 protein by suppressing its ubiquitination. a, b HMLE cells transfected with a TRIB3-expressing vector vs. a control vector (a) or MCF7 cells transfected with TRIB3-shRNA vs. CTRL-shRNA (b) were incubated with 20 μM cycloheximide (CHX) for the indicated times. c, d The effect of TRIB3 depletion on FOXO1 degradation in vitro. MCF7 cells (c) were incubated with CHX (20 μM), CHX plus bafilomycin (BAF, 200 nM), or MG132 (10 μM) for the indicated times. Control or TRIB3-silenced MCF7 cells (d, top) and MDA-MB-231 cells (d, bottom) were incubated with DMSO, 200 nM BAF, or 10 μM MG132 for 8 h. The indicated proteins were detected by immunoblotting. e, f FOXO1 activity in HMLE cells (e) transfected with a control vector or a TRIB3-expressing vector, or in MCF7 cells (f) transfected with CTRL-shRNA or TRIB3-shRNA and either a control vector or a FOXO1-expressing vector. g, h The effect of TRIB3 on FOXO1 ubiquitination. HMLE (g) or MCF7 cells (h) were transfected with the indicated plasmid. His-ubiquitin-conjugated proteins were pulled down from cell lysates. Total protein lysates and Ni-NTA-agarose eluates were immunoblotted for FLAG, His, and TRIB3. Source data are provided as a Source Data file. […] I left them out because their labels are genetic constructs, not substances; their digits are also small
(§1) Cycloheximide (CHX; Sigma Aldrich, R750107) was used as a protein synthesis inhibitor to assess the stability of the existing proteins. To assess protein stability, cells were treated with 20 μM CHX and the proteasome inhibitor MG132 (Sigma Aldrich, R750107) at 10 μM or the autophagy inhibitor BAF (Sigma Aldrich, B1793) at 200 nM for the indicated times. Protein expression was assessed via immunoblot analysis with cell lysates (20–60 μg) prepared in RIPA lysis buffer containing protease inhibitors (Roche) using anti-SOX2 (3529), anti-NANOG (4903), anti-OCT4 (2750), anti-KLF4 (4038), anti-c-Myc (13987), anti-FOXO1 (2880), anti-p-FOXO1 (9461), anti-AKT (4685), anti-p-AKT (4060), anti-β-ACTIN (4970), anti-Ubiquitin (3936), or anti-LaminA/C (4777) antibodies from CST; anti-TRIB3 antibody (ab75846) from Abcam; and anti-Trib3 antibody (PA5-15480) from Thermo Fisher Scientific[59]. All antibodies were used at 1:1000 dilution, with the exception of anti-β-Actin antibodies, which were used at 1:2000 dilution. The protein concentrations were determined by BCA Protein Assay Kits (Pierce). Proteins were separated by SDS-polyacrylamide gel electrophoresis (PAGE) and transferred to polyvinylidene difluoride membrane.

[1] = tested on: TRIB3-silenced MCF7 cells; assay: Immunoblot of AKT1/FOXO1/SOX2, TRIB3-silenced MCF7 cells with AKT1 inhibitor MK2206; assay type: cell-based, human; conditions: Fig.6e, MCF7, TRIB3-shRNA, v.s CTRL-shRNA+DMSO
Source text: Fig. 6 TRIB3 abrogates the AKT-FOXO1 interaction. a Supervised clustering of MCF7 cells transfected with CTRL-shRNA or TRIB3-shRNA using the log2-transformed values for genes in the FOXO1 upstream pathway, including AMPK, ERK, PI3K, p38, and JNK clustered genes expressed in all samples. Each column represents a separate case. Z-scores from IPA depicting the subnetwork gene expression differences between CTRL-shRNA and TRIB3-shRNA cases. The Z-score heat map depicts the five FOXO1 upstream subnetworks. Each row represents the data for the subnetwork indicated in the right margin. b, c TRIB3 inhibited the activity of AKT1 in BCCs. The indicated stable expression cell extracts were prepared and the levels of the indicated proteins were detected by immunoblotting. d, e The effects of the AKT1 agonist or antagonist for TRIB3-FOXO1-SOX2 axis in BCCs. The indicated cells were treated with the AKT1 agonist SC79 or the antagonist MK2206 for 24 h. […] HMLE cell extracts were IP with an anti-AKT1 Ab and blotted with an anti-TRIB3 or anti-FOXO1 Ab in the presence of the indicated concentration of the TRIB3-GST protein. Data are shown as the mean ± SEM; P > 0.05 was considered not significant (NS); *P < 0.05, **P < 0.01, and ***P < 0.001 compared with the vector or CTRL-shRNA group. Source data are provided as a Source Data file.
as §1

TRIB3 = TRIB3 expression after cytokines or stressors, MCF7 cells (WB); assay type: cell-based, human; conditions: cytokines 8 hr, high glucose 24 hr
Description: as §1, with “membrane. […]” for “membrane.”
(f, g) The expression of
TRIB3 in MCF7 cells (top) or MDA-MB-231 cells (bottom) treated with various concentrations of IL6 for
8 hr (f) or 10 ng/ml IL-6 for different amounts of time (g) was detected by WB. (h) Silencing TRIB3
decreased the tumor sphere formation ability of MCF7 cells with or without IL-6 stimulation. […]
Data are shown as the mean ± SEM; P>0.05 was considered not significant (N.S.); *P<0.05, **P<0.01
and ***P<0.001, compared with the con group in panels d-f. Source data are provided as a Source Data

TRIB3-GST protein = molecular target: T1, TRIB3-GST protein (UniProt Q96RU7 1-358); assay: SPR
T1 chain: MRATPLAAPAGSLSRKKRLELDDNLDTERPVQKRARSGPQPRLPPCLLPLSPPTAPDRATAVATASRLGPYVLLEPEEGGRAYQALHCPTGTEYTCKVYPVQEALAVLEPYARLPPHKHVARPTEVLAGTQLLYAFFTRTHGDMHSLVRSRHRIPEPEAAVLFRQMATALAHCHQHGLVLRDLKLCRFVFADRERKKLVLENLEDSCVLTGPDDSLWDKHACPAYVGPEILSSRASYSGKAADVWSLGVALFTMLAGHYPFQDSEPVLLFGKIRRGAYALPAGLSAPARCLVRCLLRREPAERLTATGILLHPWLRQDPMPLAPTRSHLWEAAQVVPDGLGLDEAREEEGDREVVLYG

O=c1cc(N2CCOCC2)oc2c(-c3ccccc3)cccc12 [LY294002]
FOXO1 half-life (FOXO1): 4.4 h

NC1(c2ccc(-c3nc4ccn5c(=O)[nH]nc5c4cc3-c3ccccc3)cc2)CCC1 [MK-2206]
Relative fold change AKT1 ([1]; replicate 1): 0.657 | Relative fold change FOXO1 ([1]; replicate 1): 1.341 | Relative fold change SOX2 ([1]; replicate 1): 0.604 | Relative fold change TRIB3 ([1]; replicate 1): 0.180 | Relative fold change p-AKT(473S) ([1]; replicate 1): 0.243 | Relative fold change p-FOXO1(256S) ([1]; replicate 1): 0.564 | Relative fold change AKT1 ([1]; replicate 2): 0.717 | Relative fold change FOXO1 ([1]; replicate 2): 1.441 | Relative fold change SOX2 ([1]; replicate 2): 0.664 | Relative fold change TRIB3 ([1]; replicate 2): 0.200 | Relative fold change p-AKT(473S) ([1]; replicate 2): 0.263 | Relative fold change p-FOXO1(256S) ([1]; replicate 2): 0.614 | Relative fold change AKT1 ([1]; replicate 3): 0.597 | Relative fold change FOXO1 ([1]; replicate 3): 1.241 | Relative fold change SOX2 ([1]; replicate 3): 0.544 | Relative fold change TRIB3 ([1]; replicate 3): 0.160 | Relative fold change p-AKT(473S) ([1]; replicate 3): 0.223 | Relative fold change p-FOXO1(256S) ([1]; replicate 3): 0.514

tumor necrosis factor-α
TRIB3 expression (TRIB3): enhanced TRIB3 expression in MCF7 cells

VAHTLTENRVLQN [peptide Ae]
Kd (TRIB3-GST protein): 300 nM

EVAHTLTENRALQN [M10]
Kd (TRIB3-GST protein): 750 nM

EVAATLTENRVLQN [M3]
Kd (TRIB3-GST protein): 170 nM
